From patent publication US20060276464A1, “Diarylsulfone sulfonamides and use thereof” (Wyeth, priority 2005, published 2006) come the findings set out here.

Structures are written as SMILES.

The target of assay [1] is T1, SFRP-1 (Homo sapiens, UniProt Q8N474).
T1 sequence (Q8N474 32-314): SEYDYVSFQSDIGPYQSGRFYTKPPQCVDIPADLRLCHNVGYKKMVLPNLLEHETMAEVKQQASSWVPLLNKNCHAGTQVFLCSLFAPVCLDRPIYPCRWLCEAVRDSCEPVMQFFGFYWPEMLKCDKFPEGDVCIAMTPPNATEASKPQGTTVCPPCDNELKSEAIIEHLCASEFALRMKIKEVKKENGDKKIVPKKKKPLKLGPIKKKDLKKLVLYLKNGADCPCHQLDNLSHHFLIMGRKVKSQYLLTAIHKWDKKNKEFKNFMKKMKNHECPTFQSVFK
Description: Fluorescence polarization binding assay (competitive displacement of a probe compound from SFRP-1).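 Further: test compound competes with a fluorescent probe held by SFRP-1, seen as a drop in probe anisotropy after incubation in darkness, with anisotropy as function of rising compound dose.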 Conditions: fluorescence anisotropy, 45 nM SFRP-1, 20 nM probe.

Assay [2] deals with T1, SFRP-1. The assay can be described thus: Cell-based assay for in vitro measurement of SFRP-1/SARP2 antagonist activity (U2OS cells co-transfected with 16x TCF-tk-Luciferase reporter, Wnt and hSFRP-1).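 On all read-outs here: U2OS cells co-transfected with a TCF-tk luciferase reporter, a Wnt vector, hSFRP-1 or empty vector and CMV-βgal, luciferase luminescence read in cell lysates alongside βgal activity.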 Conditions: for fold induction at 10 µM: U2OS, read-out: Fold Induction with SFRP-1, U2OS cells, single dose 10 μM, luciferase reporter, fold induction over SFRP-1 control. On the technique in general: A reporter such as luciferase makes a cellular process visible.

In the case of `O=S(=O)(NCCc1cccnc1)c1cc(S(=O)(=O)c2ccccc2)ccc1OC(F)(F)F` [Example 660, 5-(phenylsulfonyl)-N-(2-pyridin-3-ylethyl)-2-(trifluoromethoxy)benzenesulfonamide], the IC50 (as a rule, the point on the concentration scale where inhibition reaches its midpoint) at SFRP-1 [1] was determined as 2400 nM. On SFRP-1 [2], it took 3720 nM to reach a half-maximal effect (EC50) and the fold induction at 10 µM came out at 4.9.
The like results for `O=S(=O)(NC1CCOCC1)c1cc(S(=O)(=O)c2ccccc2)ccc1OC(F)(F)F` [Example 662, 5-(phenylsulfonyl)-N-(tetrahydro-2H-pyran-4-yl)-2-(trifluoromethoxy)benzenesulfonamide] were, in that order, 4000 nM, 17600 nM and 3.3.
The like results for `CC(C)c1ccc(S(=O)(=O)c2ccc(F)cc2)cc1S(=O)(=O)NCCC#N` [Example 664, N-(2-cyanoethyl)-5-[(4-fluorophenyl)sulfonyl]-2-isopropylbenzenesulfonamide] were, in that order, 1700 nM, 2990 nM and 3.9.
On SFRP-1 [1], `CC(C)c1ccc(S(=O)(=O)c2ccccc2)cc1S(=O)(=O)NC1CCOCC1` [Example 670, 2-isopropyl-5-(phenylsulfonyl)-N-(tetrahydro-2H-pyran-4-yl)benzenesulfonamide] returned an IC50 of 800 nM. Also, on SFRP-1 [2], the half-maximal effective concentration (EC50) (commonly the concentration that produces a half-maximal response) is 2830 nM and the fold induction at 10 µM stood at 3.2.
The like results for `CC(C)c1ccc(S(=O)(=O)c2ccccc2)cc1S(=O)(=O)NCCc1ccccn1` [Example 671, 2-isopropyl-5-(phenylsulfonyl)-N-(2-pyridin-2-ylethyl)benzenesulfonamide] were, in that order, 400 nM, 1580 nM and 3.6.
The like results for `CC(C)c1ccc(S(=O)(=O)c2ccccc2)cc1S(=O)(=O)NCCc1cccnc1` [Example 672, 2-isopropyl-5-(phenylsulfonyl)-N-(2-pyridin-3-ylethyl)benzenesulfonamide] were, in that order, 300 nM, 3120 nM and 4.2.
The like results for `O=S(=O)(NCCc1cccnc1)c1cc(S(=O)(=O)c2ccccc2)ccc1C(F)(F)F` [Example 677, 5-(phenylsulfonyl)-N-(2-pyridin-3-ylethyl)-2-(trifluoromethyl)benzenesulfonamide] were, in that order, 160 nM, 489 nM and 3.8.
Molecule `N#CCCNS(=O)(=O)c1cc(S(=O)(=O)c2ccccc2)ccc1C(F)(F)F` [Example 679, N-(2-cyanoethyl)-5-(phenylsulfonyl)-2-(trifluoromethyl)benzenesulfonamide] yielded an IC50 at SFRP-1 [1] of 250 nM. On SFRP-1 [2], the concentration giving a half-maximal response (EC50) came to 449 nM and the fold induction at 10 µM worked out at 3.4.
In the case of `O=S(=O)(NCCO)c1cc(S(=O)(=O)c2ccccc2)ccc1C(F)(F)F` [Example 681, N-(2-hydroxyethyl)-5-(phenylsulfonyl)-2-(trifluoromethyl)benzenesulfonamide], the concentration for half-maximal inhibition (IC50) on SFRP-1 [1] is 1100 nM. Further, at SFRP-1 [2], the concentration giving a half-maximal response (EC50) was determined as 4300 nM and the fold induction at 10 µM came out at 3.4.
The molecule `O=S(=O)(NCC(O)c1ccccc1)c1cc(S(=O)(=O)c2ccccc2)ccc1C(F)(F)F` (stereo not drawn) [Example 682, N-(2-hydroxy-2-phenylethyl)-5-(phenylsulfonyl)-2-(trifluoromethyl)benzenesulfonamide] yielded an IC50 at SFRP-1 [1] of 250 nM. Moreover, on SFRP-1 [2], a half-maximal response (EC50) required 765 nM and the fold induction at 10 µM is 1.2.
The like results for `CC(CO)NS(=O)(=O)c1cc(S(=O)(=O)c2ccccc2)ccc1C(F)(F)F` (stereo not drawn) [Example 683, N-(2-hydroxy-1-methylethyl)-5-(phenylsulfonyl)-2-(trifluoromethyl)benzenesulfonamide] were, in that order, 1200 nM, 3100 nM and 3.7.
The like results for `C[C@@H](NS(=O)(=O)c1cc(S(=O)(=O)c2ccccc2)ccc1C(F)(F)F)[C@@H](O)c1ccccc1` [Example 686, N-[(1R,2S)-2-hydroxy-1-methyl-2-phenylethyl]-5-(phenylsulfonyl)-2-(trifluoromethyl)benzenesulfonamide] were, in that order, 500 nM, 1750 nM and 3.5.
The like results for `CC(C)(C)OC(=O)N1CCC(NS(=O)(=O)c2cc(S(=O)(=O)c3ccccc3)ccc2C(F)(F)F)CC1` [Example 687, tert-butyl 4-({[5-(phenylsulfonyl)-2-(trifluoromethyl)phenyl]sulfonyl}amino)piperidine-1-carboxylate] were, in that order, 500 nM, 261 nM and 3.2.
On SFRP-1 [1], `CC(C)c1ccc(S(=O)(=O)c2ccc(F)cc2)cc1S(=O)(=O)NC1CCN(C(=S)Nc2cccc3ccccc23)CC1` [Example 690, 4-[({5-[(4-fluorophenyl)sulfonyl]-2-isopropylphenyl}sulfonyl)amino]-N-1-naphthylpiperidine-1-carbothioamide] returned an IC50 of 3000 nM. Further, on SFRP-1 [2], the EC50 stood at 8400 nM and the fold induction at 10 µM was 2.3.
The like results for `CC(C)c1ccc(S(=O)(=O)c2ccc(F)cc2)cc1S(=O)(=O)NC1CCN(C(=S)Nc2ccccc2F)CC1` [Example 691, N-(2-fluorophenyl)-4-[({5-[(4-fluorophenyl)sulfonyl]-2-isopropylphenyl}sulfonyl)amino]piperidine-1-carbothioamide] were, in that order, 1000 nM, 8600 nM and 2.8.
Turning to `Cc1ccccc1NC(=S)N1CCC(NS(=O)(=O)c2cc(S(=O)(=O)c3ccc(F)cc3)ccc2C(C)C)CC1` [Example 692, 4-[({5-[(4-fluorophenyl)sulfonyl]-2-isopropylphenyl}sulfonyl)amino]-N-(2-methylphenyl)piperidine-1-carbothioamide], the IC50 at SFRP-1 [1] amounted to 1700 nM. Besides, on SFRP-1 [2], the 50% effective concentration (EC50) was found to be 8500 nM and the fold induction at 10 µM was 3.
`CCOC(=O)NC(=S)N1CCC(NS(=O)(=O)c2cc(S(=O)(=O)c3ccc(F)cc3)ccc2C(C)C)CC1` [Example 693, ethyl({4-[({5-[(4-fluorophenyl)sulfonyl]-2-isopropylphenyl}sulfonyl)amino]piperidin-1-yl}carbonothioyl)carbamate] registered a concentration for half-maximal inhibition (IC50) on SFRP-1 [1] of 400 nM. Besides, on SFRP-1 [2], a half-maximal effect (EC50) was put at 1080 nM and the fold induction at 10 µM was found to be 3.5.
The like results for `CCCCNC(=S)N1CCC(NS(=O)(=O)c2cc(S(=O)(=O)c3ccc(F)cc3)ccc2C(C)C)CC1` [Example 694, N-butyl-4-[({5-[(4-fluorophenyl)sulfonyl]-2-isopropylphenyl}sulfonyl)amino]piperidine-1-carbothioamide] were, in that order, 2900 nM, 8700 nM and 2.6.
In the same order, the values of `COc1ccc(NC(=S)N2CCC(NS(=O)(=O)c3cc(S(=O)(=O)c4ccc(F)cc4)ccc3C(C)C)CC2)cc1` [Example 695, 4-[({5-[(4-fluorophenyl)sulfonyl]-2-isopropylphenyl}sulfonyl)amino]-N-(4-methoxyphenyl)piperidine-1-carbothioamide] are 190 nM, 7100 nM and 2.1.
The like results for `COC(=O)c1ccc(NC(=S)N2CCC(NS(=O)(=O)c3cc(S(=O)(=O)c4ccc(F)cc4)ccc3C(C)C)CC2)cc1` [Example 696, methyl 4-[({4-[({5-[(4-fluorophenyl)sulfonyl]-2-isopropylphenyl}sulfonyl)amino]piperidin-1-yl}carbonothioyl)amino]benzoate] were, in that order, 1100 nM, 14700 nM and 2.2.
In the case of `COC(=O)CNC(=S)N1CCC(NS(=O)(=O)c2cc(S(=O)(=O)c3ccc(F)cc3)ccc2C(C)C)CC1` [Example 697, methyl N-({4-[({5-[(4-fluorophenyl)sulfonyl]-2-isopropylphenyl}sulfonyl)amino]piperidin-1-yl}carbonothioyl)glycinate], the IC50 at SFRP-1 [1] was 400 nM. Moreover, at SFRP-1 [2], it took 452 nM to reach a half-maximal effect (EC50) and the fold induction at 10 µM was 3.7.
As for `CC(C)c1ccc(S(=O)(=O)c2ccc(F)cc2)cc1S(=O)(=O)NC1CCN(C(=S)NCCN2CCOCC2)CC1` [Example 698, 4-[({5-[(4-fluorophenyl)sulfonyl]-2-isopropylphenyl}sulfonyl)amino]-N-(2-morpholin-4-ylethyl)piperidine-1-carbothioamide], the 50% inhibitory concentration (IC50) at SFRP-1 [1] stood at 700 nM. Also, on SFRP-1 [2], the midpoint of the response, the EC50, lay at 609 nM and the fold induction at 10 µM is 3.
In the same order, the values of `CC(C)c1ccc(S(=O)(=O)c2ccc(F)cc2)cc1S(=O)(=O)NC1CCN(C(=S)Nc2cccc([N+](=O)[O-])c2)CC1` [Example 699, 4-[({5-[(4-fluorophenyl)sulfonyl]-2-isopropylphenyl}sulfonyl)amino]-N-(3-nitrophenyl)piperidine-1-carbothioamide] are 1600 nM, 9800 nM and 2.9.
The like results for `CC(C)c1ccc(S(=O)(=O)c2ccc(F)cc2)cc1S(=O)(=O)NC1CCN(C(=S)Nc2cccc(C(=O)O)c2)CC1` [Example 700, 3-[({4-[({5-[(4-fluorophenyl)sulfonyl]-2-isopropylphenyl}sulfonyl)amino]piperidin-1-yl}carbonothioyl)amino]benzoic acid] were, in that order, 500 nM, 397 nM and 1.7.
